US9737511B2, “Method of treating or preventing pathologic effects of acute increases in hyperglycemia and/or acute increases of free fatty acid flux” (Albert Einstein College of Medicine, Inc., priority 2004, dated 2017)

Tests used:
[1] = system: bovine aortic endothelial cells; assay: DNA strand breakage, Comet assay; assay type: cell-based; conditions: 30 mM glucose plus 100 μM compound, 7 days, FIG. 24
Description: Bovine aortic endothelial cells (“BAECs”, passage 4-10) were plated in 10 mm cell culture plates until confluent. Cells were incubated with either 5 mM glucose, 30 mM glucose, 30 mM glucose plus 100 μM deferoxamine (DFO), or 30 mM glucose plus 100 μM DMSO, a hydroxyl radical scavenger, for 7 days. Medium with reagents was changed daily. DNA strand breakage was detected using the Comet assay method.
DNA breakage detection was performed using the Comet Assay kit (Trevigen Gaitherburg Md.). Briefly, single cell electrophoresis was performed on the cometslide for 10 min at 1 volt/cm (measured from one electrode to another). After air-drying, the cometslide was stained with SYBR green. Fluorescence was detected using the Olympus IX70 fluorescent microscope and analysis of the fluorescent density of DNA breakage (length of tail) was performed using Image J software.

[2] = system: poly (ADP-ribose)polymerase (PARP); assay: PARP activity by 3H-NAD incorporation in aortic endothelial cells; assay type: cell-based, bovine; conditions: 30 mM glucose plus 100 μM compound, 6 days, FIG. 25
Description: Bovine aortic endothelial cells (“BAECs”, passage 4-10) were plated in 10 mm cell culture plates until confluent. Cells were incubated with either 5 mM glucose, 30 mM glucose, 30 mM glucose plus 100 μM deferoxamine, or 30 mM glucose plus 100 μM DMSO for 6 days and medium changed daily.
The 3H-NAD incorporation method was used to assess PARP activity. BAECs were incubated with buffer which was composed of 56 mM Hepes (pH 7.5), 28 mM KCl, 28 mM NaCl, 2 mM MgCl2, 0.01% digitonin, 25 mM NAD^+, and 1 μCi/ml ^3HNAD^+ for 10 min at 37° C. TCA was added to precipitate ribosylated protein and cells were lysed in 2% NaOH. Detection of incorporated ^3H-NAD was performed using a scintillation counter, and PARP activity determined according to the number of ^3H-NAD dpm.

[3] = system: endothelial nitric oxide synthase (eNOS); assay: eNOS activity in aortas of diabetic mice; assay type: in vivo, mouse; conditions: STZ diabetic mice, 10 mg/kg subcutaneously once per day for 7 days, FIG. 29 bar 3
Description: (§1) Male C57B16 mice (6-8 weeks old) were made diabetic by daily injections of 50 mg/kg streptozotocin in 0.05 M NaCitrate pH 4.5 after an eight hour fast, for five consecutive days. Two weeks after the initial injection, the blood glucose was determined and the diabetic mice were randomized into two groups with equal mean blood glucose levels. Deferoxamine (10 mg/kg) was injected subcutaneously once per day for 7 days in one group of diabetic animals. The aortas were collected for endothelial nitric oxide synthase (eNOS) activity measurement.
Measurement eNOS activity was accomplished as follows. Aortas were collected in liquid-nitrogen and tissue proteins isolated. Immunoprecipitation methods were used to purify the eNOS from tissue lysates. The purified eNOS immuno-complex was incubated with 100 μl of reaction buffer (3 μM Tetrahydrobiopterin, ImM NAPDH, 2.5 mM CaCl2, 200 U Calmodulin, ^3H-L-arginine 0.2 μCi) for 45 min at 37° C. with rolling. After the incubation, samples were loaded onto Tris-formed DOWEX 50WX8 ion-exchange column and ^3H-citrulline was collected. ^3H-citrulline was quantitated using a liquid scintillation counter and eNOS activity was calculated from the amount of ^3H-citrulline generated.

[4] = system: bovine aortic endothelial cells; assay: Hyperglycemia-induced intracellular reactive oxygen species production (CM-H2DCFDA probe); assay type: cell-based; conditions: 30 mM glucose plus 250 μM deferoxamine, 72 hrs, FIG. 21 bar 4
Description: Cell culture conditions: For ROS measurement, bovine aortic endothelial cells (BAECs, passage 4-10) were plated in 96 well plates at 100,000 cells/well in Eagle's MEM containing 10% FBS, essential and nonessential amino acids, and antibiotics. Cells were incubated with either 5 mM glucose, 30 mM glucose, 30 mM glucose plus 100 micromolar deferoxamine, 30 mM glucose plus 250 micromolar deferoxamine. The deferoxamine was freshly prepared and added to the cells on three consecutive days. The ROS measurements were performed 72 hrs after the initial treatment.
Intracellular reactive oxygen species measurements: The intracellular formation of reactive oxygen species was detected using the fluorescent probe CMH2DCFDA (Molecular Probes). Cells (1×105 ml-1) were loaded with 10iM CM-H2DCFDDA, incubated for 45 min at 37° C., and analyzed in an HTS 7000 Bio Assay Fluorescent Plate Reader (Perkin Elmer) using the HTSoft program. ROS production was determined from an H202 standard curve (10-200 nmol ml-1).

[5] = system: endothelial nitric oxide synthase (eNOS); assay: eNOS activity (3H-citrulline) in aortic endothelial cells; assay type: cell-based, bovine; conditions: 30 mM glucose plus 100 μM deferoxamine, 24 hour, FIG. 28 bar 3
Description: Bovine aortic endothelial cells (“BAECs”, passage 4-10) were plated in 24-well plate (50,000 cell/well). Cells were incubated with either 5 mM glucose, 30 mM glucose alone, or 30 mM glucose plus 100 μM deferoxamine, for 24 hour. Six hours before eNOS activity determination, media without arginine was added to the cells to deplete endogenous arginine.
Measurement of eNOS activity was accomplished as follows. BAECs were incubated with 400 μl of PBS-^3H-arginine (1.5 μci/ml) buffer for 30 min at 37° C. The reaction was stopped by adding IN TCA (500 μl/well, ice cold ), the cells were freeze fractured in liquid nitrogen for 2 min and thawed at 37° C. for 5 min to obtain the cell lysate. After extraction with ether, the cell lysate was adjusted to pH 5.5 using Hepes buffer containing 2 mM EDTA and 2 mM of EGTA, then loaded onto Trisformed DOWEX 50WX8 ion-exchange columns and ^3H-citrulline collected. Detection of ^3H-citrulline was performed using a liquid scintillation counter, and eNOS activity was calculated from the amount of ^3H-citrulline generated.

[6] = system: diabetic mice (db/db); assay: Diabetic wound healing (wound closure); assay type: in vivo, mouse; conditions: deferoxamine-treated diabetic mice, FIGS. 33A-B
Excerpt: The effect of reducing the wound healing in diabetic mice (db/db) by treating them with deferoxamine was also studied in the novel model of graded ischemia in the dorsal soft tissue of mice of Example 20. The animals were made diabetics as described in Example 21.

[7] = system: streptozotocin-induced diabetic (STZ) and wild type C57 (WT) mice; assay: Graded ischemia model in dorsal soft tissue (ischemic flap), angiogenic response to ischemia; assay type: in vivo, mouse; conditions: for EPC mobilization: STZ mice vs untreated STZ mice, day 7 postischemic insult, FIG. 35
Excerpt: Since the vascular anatomy of the mouse dorsum is precisely known, and the major axial vessels can be easily visualized, one can create a reliable zone of ischemia with a reproducible oxygen gradient in the tissue. This has been confirmed with direct tissue oxygen tension measurements utilizing five reference points (p1-p5) spaced 0.5 cm apart proceeding from the least to most ischemic regions. This also allows for the study of discrete microenvironments of ischemia (Areas A, B, C), with Area A being the least ischemic and Area C being the most ischemic portion of the soft tissue. The design of this model facilitates direct dynamic measurement of oxygen tension, quantitation of tissue survival, with a degree of reproducibility that allows correlation of specific oxygen tensions with changes in gene expression.
Researchers have created a novel model of graded ischemia in the dorsal soft tissue of mice. Since the vascular anatomy of the mouse dorsum is precisely known, and the major axial vessels can be easily visualized, this model creates a reliable zone of ischemia with a reproducible oxygen gradient in the tissue. This has been confirmed with direct tissue oxygen tension measurements utilizing four reference points (p1-p4) spaced 0.5 cm apart, proceeding from the least to most ischemic regions.
The effect of deferoxamine, an iron chelator, on ischemic neovascularization in streptozotocin-induced diabetic (STZ) and wild type C57 (WT) mice was examined. Male C57B16 mice (6-8 weeks old) were made diabetic by daily injections of 50 mg/kg streptozotocin in 0.05 M NaCitrate pH 4.5 after an eight hour fast, for five consecutive days. Two weeks after the initial injection the blood glucose was determined, the diabetic mice were randomized into two groups with equal mean blood glucose levels.
The treatment group was pretreated 7 days prior to having an ischemic flap created on their dorsum and throughout the experiment with daily injections of deferoxamine (10 mg/kg) subcutaneously once per day for 7 days in one group of diabetic animals. […]

[8] = system: prostacyclin synthase; assay: Prostacyclin synthase activity in aortas of diabetic mice; assay type: in vivo, mouse; conditions: STZ diabetic mice, 10 mg/kg subcutaneously once per day for 7 days, FIG. 27 bar 3
Description: as §1, with “injection” for “injection,”, “collected.” for “collected”, “prostacyclin” for “endothelial nitric oxide”, “synthase” for “synthase (eNOS)”
Prostacyclin synthase activity measurement A competitive immunoassay method (Correlate-EIA) was used for the quantitative determination of 6-keto-PGF1α. Mouse aortas were washed with PBS and incubated at 37° C. for 3 hours in 400 μl incubation buffer containing 20 mM TRIS buffer (pH 7.5), and 15 μM arachidonic acid. 100 μl of sample was used to measure the PGF 1α.

[9] = system: bovine aortic endothelial cells; assay: Free intracellular iron measurement (fura-2 AM); assay type: cell-based; conditions: 30 mM glucose plus 100 μM deferoxamine, 24 hours, FIG. 23C
Description: In order to detect intracellular free iron, cells were loaded with fura-2 AM in the dark at 37° C. for 15 min in 1 ml of TBSS containing 5 μM furs-2 AM. After loading, cells were incubated with TBSS with Iml of 20 μM EDTA for 5 min. (Kress et al., “The Relationship between Intracellular Free Iron and Cell Injury in Cultured Neurons, Astrocytes, and Oligodendrocytes”, J. Neuro., 22(14):5848-5855 (2002), which is hereby incorporated by reference in its entirety). Fluorescence was detected using an Olympus IX70 with 10 X planapo objectives, run by I.P. Lab Spectrum on a Power PC computer. Analysis was performed with I.P.Lab Spectrum.
Bovine aortic endothelial cells (“BAECs”, passage 4-10) were plated in 24 well plates at […] in Eagle's MEM containing 10% FBS, essential and nonessential amino acids, and antibiotics. Cells were incubated with either 5 mM glucose, 30 mM glucose, or 30 mM glucose plus 100 μM deferoxamine. Free intracellular iron measurement was performed 24 hours later. To detect intracellular free iron, cells were loaded with fura-2 AM as described above in Example 12.

[10] = system: prostacyclin synthase; assay: Prostacyclin synthase activity (6-keto-PGF1α immunoassay) in aortic endothelial cells; assay type: cell-based, bovine; conditions: 30 mM glucose plus 100 μM deferoxamine, 24 hours, FIG. 26 bar 3
Description: Bovine aortic endothelial cells (“BAECs”, passage 4-10) were plated in a 24-well plate (50,000 cell/well). Cells were incubated with either 5 mM glucose, 30 mM glucose, or 30 mM glucose plus 100 μM deferoxamine. The prostacyclin synthase product, PGF-1α, was measured 24 hours later.
Prostacyclin synthase activity measured as the concentration of the stable product of prostacyclin synthase, PGF-1a. A competitive immunoassay method (Correlate-EIA) was used for the quantitative determination of 6-keto-PGF1α. Samples (100 μl) collected from BAECs culture medium were added to the assay plate, which was precoated with antibody (6-keto-PGF1α, EIA conjugate solution). PGF1α concentration was calculated according to a standard curve, and data analysis performed using AssayZap software.

[11] = Migration of diabetic bone marrow derived, lineage depleted cells toward SDF; assay type: cell-based, mouse; conditions: cells from STZ mice treated with deferoxamine

Structure (SMILES)	hyperglycemia-induced DNA strand breakage [1]	hyperglycemia-induced PARP activation [2]	diabetes-induced inhibition of eNOS activity in aortas [3]	hyperglycemia-induced increased ROS (superoxide) production [4]	hyperglycemia-induced inhibition of eNOS activity [5]	complete wound closure [6] [days]	EPC mobilization [7]	EPC mobilization ([7]; listed as Deferoxamine)	tissue survival ([7]; STZ mice, 10 mg/kg s.c. daily, FIG. 31B)	blood flow assessed by Doppler ([7]; STZ mice, 10 mg/kg s.c. daily, day 7, FIG. 31A)	post-ischemic neovascularization (CD31 positive blood vessel counts) ([7]; STZ mice, FIG. 32)	bone marrow-derived endothelial precursor cells mobilized in response to ischemia ([7]; deferoxamine-treated diabetic animals, FIGS. 34C-D) [%]	capillary formation in ischemic tissue ([7]; deferoxamine-treated diabetic mice vs untreated, FIG. 34E-F)	oxygenation of ischemic flap by forming new vessels ([7]; deferoxamine-treated diabetic mice, FIGS. 34A-B)	diabetes-induced defect in the normal angiogenic response to ischemia ([7]; diabetic animals treated with deferoxamine)	neovascularization (CD31 positive blood vessel counts) ([7]; wild type mice, FIG. 32)	diabetes-induced inhibition of prostacyclin synthase activity in aortas [8]	hyperglycemia-induced increase in intracellular free iron [9]	hyperglycemia-induced inhibition of prostacyclin synthase activity (PGF-1α) [10]	migration toward SDF [11]
C[S+](C)[O-] [DMSO]	Inhibit	Inhibit																		
CC(=O)N(O)CCCCCNC(=O)CCC(=O)N(O)CCCCCNC(=O)CCC(=O)N(O)CCCCCN [deferoxamine]	prevents	prevents	does not inhibit the activity of this important antiatherogenic enzyme at all	completely prevents	does not inhibit the activity of this important antiatherogenic enzyme at all	16	improved	restores	restored to normal	restored to normal	restored	1.12	substantially increase	increase oxygenation	completely prevents	improved neovascularization	does not inhibit the activity of this important antiatherogenic enzyme at all	completely prevents	does not inhibit the activity of this important antiatherogenic enzyme at all	restored to normal
